Experiments:
Experiment in all cases: KINOMEscan kinase binding assay
[1] = biological target: T1, 384 kinases from the human genome (Homo sapiens, UniProt P51813); conditions: kinase BMX (Entrez BMX)
T1 construct: purchased Eurofin/DiscoverX
In short: (§1)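 Competition binding (KINOMEscan) across 384 human kinases with compound at 10 µM. Ligand binding was expressed relative to DMSO (100%) as the average of duplicates from one experiment. S(10) selectivity score was derived.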

[2] = biological target: T2, 384 kinases from the human genome (Homo sapiens, UniProt P30530); conditions: kinase AXL (Entrez AXL)
T2 construct: purchased Eurofin/DiscoverX
In short: as §1

[3] = biological target: T3, 384 kinases from the human genome (Homo sapiens, UniProt P10721)
T3 construct: purchased Eurofin/DiscoverX
T3 sequence (P10721 26-976): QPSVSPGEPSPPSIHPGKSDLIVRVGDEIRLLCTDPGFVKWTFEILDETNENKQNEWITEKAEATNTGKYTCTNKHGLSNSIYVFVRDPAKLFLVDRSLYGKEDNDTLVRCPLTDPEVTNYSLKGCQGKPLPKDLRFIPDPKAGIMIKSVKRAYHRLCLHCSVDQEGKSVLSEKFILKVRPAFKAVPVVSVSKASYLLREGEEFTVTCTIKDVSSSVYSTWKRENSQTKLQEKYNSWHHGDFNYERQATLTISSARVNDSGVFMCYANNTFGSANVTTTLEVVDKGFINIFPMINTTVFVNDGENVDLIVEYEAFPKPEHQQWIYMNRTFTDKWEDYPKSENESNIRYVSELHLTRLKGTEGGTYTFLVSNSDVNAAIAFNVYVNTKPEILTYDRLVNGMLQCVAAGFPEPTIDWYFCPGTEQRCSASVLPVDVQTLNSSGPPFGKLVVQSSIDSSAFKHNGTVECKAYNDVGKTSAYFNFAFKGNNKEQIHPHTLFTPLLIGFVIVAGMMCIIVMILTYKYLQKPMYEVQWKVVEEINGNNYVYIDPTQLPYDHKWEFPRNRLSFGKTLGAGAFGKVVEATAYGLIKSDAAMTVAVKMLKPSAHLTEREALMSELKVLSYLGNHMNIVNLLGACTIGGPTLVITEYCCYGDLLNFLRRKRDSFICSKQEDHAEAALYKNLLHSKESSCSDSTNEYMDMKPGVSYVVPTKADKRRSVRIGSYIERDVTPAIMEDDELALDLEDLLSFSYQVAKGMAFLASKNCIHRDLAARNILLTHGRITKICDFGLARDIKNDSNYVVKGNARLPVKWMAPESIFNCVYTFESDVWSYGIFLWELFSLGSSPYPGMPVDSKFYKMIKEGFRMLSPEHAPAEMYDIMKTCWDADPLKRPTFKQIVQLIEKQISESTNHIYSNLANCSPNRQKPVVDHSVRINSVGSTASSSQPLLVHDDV
In short: as §1

[4] = biological target: T4, 384 kinases from the human genome (Homo sapiens, UniProt P31749); conditions: kinase AKT1 (Entrez AKT1)
T4 construct: purchased Eurofin/DiscoverX
In short: as §1

[5] = biological target: T5, 384 kinases from the human genome (Homo sapiens, UniProt P08581); conditions: kinase MET (Entrez MET)
T5 construct: purchased Eurofin/DiscoverX
In short: as §1

[6] = biological target: T6, 384 kinases from the human genome (Homo sapiens, UniProt Q8IY84); conditions: kinase NIM1 (Entrez MGC42105)
T6 construct: purchased Eurofin/DiscoverX
In short: as §1

[7] = biological target: T7, 384 kinases from the human genome (Homo sapiens, UniProt Q96L34); conditions: kinase MARK4 (Entrez MARK4)
T7 construct: purchased Eurofin/DiscoverX
T7 sequence (Q96L34 whole entry): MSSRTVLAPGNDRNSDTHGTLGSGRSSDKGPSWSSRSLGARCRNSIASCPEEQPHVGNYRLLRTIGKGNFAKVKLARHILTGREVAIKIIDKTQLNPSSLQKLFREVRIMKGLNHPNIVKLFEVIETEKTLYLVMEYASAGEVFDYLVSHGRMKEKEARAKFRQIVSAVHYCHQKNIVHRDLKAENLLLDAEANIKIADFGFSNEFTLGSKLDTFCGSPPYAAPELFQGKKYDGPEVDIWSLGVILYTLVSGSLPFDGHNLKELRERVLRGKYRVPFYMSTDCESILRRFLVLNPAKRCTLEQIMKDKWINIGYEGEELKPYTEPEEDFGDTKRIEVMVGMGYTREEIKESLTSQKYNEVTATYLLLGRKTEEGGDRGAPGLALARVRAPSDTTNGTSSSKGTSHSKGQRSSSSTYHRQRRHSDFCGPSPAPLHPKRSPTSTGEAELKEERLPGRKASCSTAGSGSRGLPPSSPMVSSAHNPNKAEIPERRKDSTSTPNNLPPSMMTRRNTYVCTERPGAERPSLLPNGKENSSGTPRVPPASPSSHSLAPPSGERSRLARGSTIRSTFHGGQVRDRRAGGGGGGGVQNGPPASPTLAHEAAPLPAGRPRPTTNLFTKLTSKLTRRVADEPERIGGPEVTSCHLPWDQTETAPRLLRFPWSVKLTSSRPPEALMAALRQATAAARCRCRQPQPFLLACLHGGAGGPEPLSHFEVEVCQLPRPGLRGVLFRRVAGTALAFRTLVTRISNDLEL
In short: as §1

[8] = biological target: T8, 384 kinases from the human genome (Homo sapiens, UniProt Q9BYT3); conditions: kinase STK33 (Entrez STK33)
T8 construct: purchased Eurofin/DiscoverX
In short: as §1

[9] = biological target: T9, 384 kinases from the human genome (Homo sapiens, UniProt P53667); conditions: kinase LIMK1 (Entrez LIMK1)
T9 construct: purchased Eurofin/DiscoverX
In short: as §1

[10] = biological target: T10, 384 kinases from the human genome (Homo sapiens, UniProt P36507); conditions: kinase MEK2 (Entrez MAP2K2)
T10 construct: purchased Eurofin/DiscoverX
In short: as §1

[11] = biological target: T11, 384 kinases from the human genome (Homo sapiens, UniProt Q6P3R8); conditions: kinase NEK5 (Entrez NEK5)
T11 construct: purchased Eurofin/DiscoverX
In short: as §1

[12] = biological target: T12, 384 kinases from the human genome (Homo sapiens, UniProt Q16539); conditions: kinase p38-alpha (Entrez MAPK14)
T12 construct: purchased Eurofin/DiscoverX
In short: as §1

[13] = biological target: T13, 384 kinases from the human genome (Homo sapiens, UniProt Q13557); conditions: kinase CAMK2D (Entrez CAMK2D)
T13 construct: purchased Eurofin/DiscoverX
In short: as §1

[14] = biological target: T14, 384 kinases from the human genome (Homo sapiens, UniProt Q8NE63); conditions: kinase HIPK4 (Entrez HIPK4)
T14 construct: purchased Eurofin/DiscoverX
In short: as §1

[15] = biological target: T15, 384 kinases from the human genome (Homo sapiens, UniProt P54756); conditions: kinase EPHA5 (Entrez EPHA5)
T15 construct: purchased Eurofin/DiscoverX
In short: as §1

[16] = biological target: T16, 384 kinases from the human genome (Homo sapiens, UniProt Q02779); conditions: kinase MLK2 (Entrez MAP3K10)
T16 construct: purchased Eurofin/DiscoverX
In short: as §1

[17] = biological target: T17, 384 kinases from the human genome (Homo sapiens, UniProt Q05397); conditions: kinase FAK (Entrez PTK2)
T17 construct: purchased Eurofin/DiscoverX
T17 sequence (Q05397 whole entry): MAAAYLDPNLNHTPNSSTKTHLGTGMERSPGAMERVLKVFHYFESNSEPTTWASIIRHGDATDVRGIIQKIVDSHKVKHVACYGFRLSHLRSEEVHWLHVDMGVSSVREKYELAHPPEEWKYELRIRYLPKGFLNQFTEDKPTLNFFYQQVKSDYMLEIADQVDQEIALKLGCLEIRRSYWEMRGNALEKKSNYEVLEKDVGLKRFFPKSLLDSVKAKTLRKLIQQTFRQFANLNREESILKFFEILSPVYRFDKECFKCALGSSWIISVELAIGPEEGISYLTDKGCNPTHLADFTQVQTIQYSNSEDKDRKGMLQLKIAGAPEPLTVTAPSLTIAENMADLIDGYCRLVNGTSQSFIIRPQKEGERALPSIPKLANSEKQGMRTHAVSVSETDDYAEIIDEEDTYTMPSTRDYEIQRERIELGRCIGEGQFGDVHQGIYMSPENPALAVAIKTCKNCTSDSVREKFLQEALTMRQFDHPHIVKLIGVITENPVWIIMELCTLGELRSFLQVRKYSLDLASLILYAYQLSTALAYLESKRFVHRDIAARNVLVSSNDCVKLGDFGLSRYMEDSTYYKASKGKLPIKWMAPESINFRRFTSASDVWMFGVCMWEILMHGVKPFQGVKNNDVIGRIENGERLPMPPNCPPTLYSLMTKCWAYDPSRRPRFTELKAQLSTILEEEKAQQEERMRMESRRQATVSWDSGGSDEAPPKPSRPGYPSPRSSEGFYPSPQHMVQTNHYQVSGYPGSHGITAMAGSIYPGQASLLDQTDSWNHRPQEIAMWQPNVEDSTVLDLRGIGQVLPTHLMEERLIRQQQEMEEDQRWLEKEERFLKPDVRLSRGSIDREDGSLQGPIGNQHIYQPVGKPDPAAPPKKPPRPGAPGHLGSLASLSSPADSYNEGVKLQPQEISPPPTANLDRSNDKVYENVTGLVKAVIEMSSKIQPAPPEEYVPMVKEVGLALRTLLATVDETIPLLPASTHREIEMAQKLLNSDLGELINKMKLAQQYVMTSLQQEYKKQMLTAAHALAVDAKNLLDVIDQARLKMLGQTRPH
In short: as §1

[18] = biological target: T18, 384 kinases from the human genome (Homo sapiens, UniProt P35590); conditions: kinase TIE1 (Entrez TIE1)
T18 construct: purchased Eurofin/DiscoverX
In short: as §1

[19] = biological target: T19, 384 kinases from the human genome (Homo sapiens, UniProt Q9Y5S2); conditions: kinase MRCKB (Entrez CDC42BPB)
T19 construct: purchased Eurofin/DiscoverX
T19 sequence (Q9Y5S2 whole entry): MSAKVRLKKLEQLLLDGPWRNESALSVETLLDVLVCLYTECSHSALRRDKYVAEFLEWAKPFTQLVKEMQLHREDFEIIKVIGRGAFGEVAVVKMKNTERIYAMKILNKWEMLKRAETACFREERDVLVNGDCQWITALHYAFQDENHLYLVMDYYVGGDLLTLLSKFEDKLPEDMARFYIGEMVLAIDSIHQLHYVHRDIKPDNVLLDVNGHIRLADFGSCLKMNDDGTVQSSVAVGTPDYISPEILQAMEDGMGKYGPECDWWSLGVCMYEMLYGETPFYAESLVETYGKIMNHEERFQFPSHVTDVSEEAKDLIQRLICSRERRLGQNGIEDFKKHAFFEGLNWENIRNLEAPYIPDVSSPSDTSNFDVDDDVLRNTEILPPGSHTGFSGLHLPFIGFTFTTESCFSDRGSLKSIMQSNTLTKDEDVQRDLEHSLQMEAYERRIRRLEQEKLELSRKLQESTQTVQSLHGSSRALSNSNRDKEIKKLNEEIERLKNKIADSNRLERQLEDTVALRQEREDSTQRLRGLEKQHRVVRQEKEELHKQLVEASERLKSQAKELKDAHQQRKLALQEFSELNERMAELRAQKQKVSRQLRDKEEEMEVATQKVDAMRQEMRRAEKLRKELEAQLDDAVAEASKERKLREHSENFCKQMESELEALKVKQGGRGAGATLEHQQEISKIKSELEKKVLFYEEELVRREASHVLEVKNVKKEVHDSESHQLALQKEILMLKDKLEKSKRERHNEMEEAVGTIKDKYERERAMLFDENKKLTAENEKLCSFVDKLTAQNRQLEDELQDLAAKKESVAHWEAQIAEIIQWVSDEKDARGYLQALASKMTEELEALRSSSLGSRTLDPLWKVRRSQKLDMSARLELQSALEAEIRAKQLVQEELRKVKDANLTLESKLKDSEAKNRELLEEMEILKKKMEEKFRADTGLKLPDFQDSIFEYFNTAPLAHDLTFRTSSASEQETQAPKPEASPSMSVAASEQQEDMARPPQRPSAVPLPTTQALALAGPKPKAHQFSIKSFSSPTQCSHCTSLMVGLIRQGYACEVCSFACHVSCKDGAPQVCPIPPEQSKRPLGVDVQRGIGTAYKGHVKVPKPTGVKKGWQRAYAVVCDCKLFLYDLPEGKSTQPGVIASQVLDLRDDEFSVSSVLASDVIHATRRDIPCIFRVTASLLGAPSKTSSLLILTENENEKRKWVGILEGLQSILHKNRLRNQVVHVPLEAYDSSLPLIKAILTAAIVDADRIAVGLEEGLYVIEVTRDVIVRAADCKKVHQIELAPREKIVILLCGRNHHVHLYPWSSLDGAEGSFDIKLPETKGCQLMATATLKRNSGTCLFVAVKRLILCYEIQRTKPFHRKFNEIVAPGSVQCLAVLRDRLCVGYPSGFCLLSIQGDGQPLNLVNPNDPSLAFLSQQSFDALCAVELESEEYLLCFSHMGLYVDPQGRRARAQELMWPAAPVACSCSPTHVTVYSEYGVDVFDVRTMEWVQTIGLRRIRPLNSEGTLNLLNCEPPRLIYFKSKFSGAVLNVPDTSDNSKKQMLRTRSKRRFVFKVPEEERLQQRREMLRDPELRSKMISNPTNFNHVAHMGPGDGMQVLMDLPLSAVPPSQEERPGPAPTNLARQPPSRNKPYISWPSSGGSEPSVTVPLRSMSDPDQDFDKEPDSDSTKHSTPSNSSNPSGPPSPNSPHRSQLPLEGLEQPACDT
In short: as §1

[20] = biological target: T20, 384 kinases from the human genome (Homo sapiens, UniProt P51955); conditions: kinase NEK2 (Entrez NEK2)
T20 construct: purchased Eurofin/DiscoverX
In short: as §1

[21] = biological target: T21, 384 kinases from the human genome (Homo sapiens, UniProt O00329); conditions: kinase PIK3CD (Entrez PIK3CD)
T21 construct: purchased Eurofin/DiscoverX
In short: as §1

[22] = biological target: T22, 384 kinases from the human genome (Homo sapiens, UniProt Q13976); conditions: kinase PRKG1 (Entrez PRKG1)
T22 construct: purchased Eurofin/DiscoverX
In short: as §1

[23] = biological target: T23, 384 kinases from the human genome (Homo sapiens, UniProt O43283); conditions: kinase LZK (Entrez MAP3K13)
T23 construct: purchased Eurofin/DiscoverX
In short: as §1

[24] = biological target: T24, 384 kinases from the human genome (Homo sapiens, UniProt P17612); conditions: kinase PKAC-alpha (Entrez PRKACA)
T24 construct: purchased Eurofin/DiscoverX
In short: as §1

[25] = biological target: T25, 384 kinases from the human genome (Homo sapiens, UniProt Q86YV6); conditions: kinase MYLK4 (Entrez MYLK4)
T25 construct: purchased Eurofin/DiscoverX
T25 sequence (Q86YV6 whole entry): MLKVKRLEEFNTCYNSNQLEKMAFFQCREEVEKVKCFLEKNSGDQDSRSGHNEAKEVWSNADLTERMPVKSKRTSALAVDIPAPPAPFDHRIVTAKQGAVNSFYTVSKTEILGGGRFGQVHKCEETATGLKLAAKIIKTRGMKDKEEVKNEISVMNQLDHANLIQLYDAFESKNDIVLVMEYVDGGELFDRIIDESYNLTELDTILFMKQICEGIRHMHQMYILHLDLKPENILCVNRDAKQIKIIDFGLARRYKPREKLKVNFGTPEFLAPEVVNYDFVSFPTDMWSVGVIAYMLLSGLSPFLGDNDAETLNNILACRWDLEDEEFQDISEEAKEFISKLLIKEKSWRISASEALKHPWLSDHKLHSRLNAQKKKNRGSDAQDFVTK
In short: as §1

[26] = biological target: T26, 384 kinases from the human genome (Homo sapiens, UniProt Q13555); conditions: kinase CAMK2G (Entrez CAMK2G)
T26 construct: purchased Eurofin/DiscoverX
In short: as §1

CC(C)C(=O)N1CCN(c2ccc(NC(=O)c3cc4ccccc4o3)cc2Cl)CC1 [Compound 21]
Percent Control [1]: 68%
Percent Control [2]: 69%
KIT binding to its ligand affected ([3]; 10 µM of 21, compared to DMSO (100%)): more than 90%
Percent Control ([3]; kinase KIT (Entrez KIT)): 5.9%
Percent Control ([3]; kinase KIT-autoinhibited (Entrez KIT)): 93%
Percent Control [4]: 97%
Percent Control [5]: 91%
Percent Control [6]: 77%
Percent Control [7]: 98%
Percent Control [8]: 100%
Percent Control [9]: 79%
Percent Control [10]: 76%
Percent Control [11]: 74%
Percent Control [12]: 100%
Percent Control [13]: 92%
Percent Control [14]: 100%
Percent Control [15]: 100%
Percent Control [16]: 96%
Percent Control [17]: 100%
Percent Control [18]: 100%
Percent Control [19]: 94%
Percent Control [20]: 91%
Percent Control [21]: 100%
Percent Control [22]: 96%
Percent Control [23]: 100%
Percent Control [24]: 97%
Percent Control [25]: 99%
Percent Control [26]: 98%
